# Measured values published in patent publication US20070142462A1, “Method of Treating Cancer” (The University of Utah, priority 2000, published 2007).
# Legend:
# [1] = system: Adeno-squamous lung carcinoma NCI-H596 cells; experiment: MTT proliferation assay, NCI-H596 lung carcinoma; format: cell-based, human; conditions: Catalase 3000 U/ml; 10% FBS; 48 hours; mean±SE vs control
# Method: Measurement of Proliferation in Cell Cultures. […] This assay empirically distinguishes between dead and living cells.
# Cell Culture Treatments. The effect of antioxidant treatments on proliferation of malignant cell lines was studied in cultures stimulated with 10% FBS. Cell numbers were quantitated by the MTT assay 24-72 hours later. In some experiments, antioxidants were added immediately after cells were plated. In other experiments, cells were plated and allowed to grow for 24 hours before fresh media with antioxidants was added, and cell numbers were studied by the MTT assay 48 hours later.
# Cells stimulated with 10% FBS were plated at a density of 50,000 cells per well. DMSO and antioxidants were added to cell wells at the indicated concentrations. […] Each value represents a mean of at least 4 experiments.
# M1619 cells = experiment: Cytotoxicity by trypan blue; format: cell-based; conditions: catalase treatment; 24 hours
# Method: Measurement of Cytotoxicity and Apoptosis. To assess for cytotoxicity, near confluent cells cultured in 24 well plates were exposed to antioxidants or withdrawn from serum for 24 hours. Medium was removed, and replaced with Dulbecco=s phosphate buffered saline (DPBS) containing 0.1% trypan blue. […] To assess for apoptosis, cells grown on glass slides were treated with antioxidants for 24 hours. Apoptosis was studied by terminal deoxynucleotidyl transferase (TdT) dependent 3′BOH fluorescein end-labeling of DNA fragments, using a Fluorescein-FragEL™ DNA fragmentation detection kit (Oncogene Research Products, Cambridge, Mass.). DNase-treated fixed cells were used as a positive control.
# p65 component of NF-κB = experiment: Immunohistochemical localization of p65 in M1619 cells; format: cell-based, human; conditions: 24 hours, catalase 3,000 U/ml, apocynin 150 μg/ml, dicumarol 250 μM
# Method: The effect of antioxidants on nuclear activation of NF-κB was studied by incubating near confluent (70%) cell cultures with antioxidant treatments for 1-48 hours. Nuclear protein was harvested, and EMSAs were performed using DNA consensus binding sequences, or nuclear translocation of the p65 component of NF-κB was studied by immunoperoxidase staining, as outlined below.
# Immunohistochemical Localization of NF-κB. Cells grown on sterile coverslips and treated with catalase 3,000 U/ml, apocynin 150 μg/ml, or DPBS or DMSO vehicles for 24 h were fixed for 20 min on ice with 4% paraformaldehyde in DPBS with protease inhibitors, PI [Sigma protease inhibitor cocktail, 10 μl/ml, containing 4-(2-aminoethyl)benzensulfonyl fluoride (AEBSF), pepstatin A, trans-epoxysuccinyl-L-leucylamindo-(guanidino)butane (E-64), bestatin, leupeptin and aprotinin]. Cells were permeabilized by treating for 2 min with 0.1% NP-40 in DPBS/PI, washed once with cold DPBS and fixed as before for 10 min. Coverslips were incubated in 3% hydrogen peroxide for 30 min to suppress any remaining peroxidase, and washed three times in cold DPBS. The permeabilized and fixed cells were blocked for 2 hours with 2% BSA in DPBS on ice and incubated overnight at 4° C. with 1 μg/ml of anti-p65 antibody (Santa Cruz) diluted in 0.1% BSA/DPBS. Unbound anti-p65 was washed away with 2% BSA/DPBS and bound antibody was stained by incubation with biotinylated goat anti-rabbit immunoglobulin diluted 1:50 in 0.1% BSA/DPBS for 45 min on ice. Excess secondary antibody was washed away by 3 washes with 2% BSA/DPBS on ice. After washing, the cells were incubated with a streptavidin-biotin-peroxidase complex at room temperature for 1 hr, washed again, and incubated in 0.03% wt/vol 3-3′diaminobenzidine with 0.003% vol/vol hydrogen peroxide until a brown reaction product could be seen. Cells were then counterstained with eosin and mounted on glass slides before viewing under light microscopy. […]
substance,measurement,setting,value
Catalase,Percent Growth Inhibition,[1],69 ± 4
same,trypan blue dye exclusion,M1619 cells,significantly increased
same,anti-p65 staining in nuclei (nuclear translocation of NF-κB),p65 component of NF-κB,little staining in nuclei
